From PMC5386260, “Acute development of cortical porosity and endosteal naïve bone formation from the daily but not weekly short-term administration of PTH in rabbit” (PLoS ONE, 2017)

What was measured:
[1] = test system: endosteal surface of rabbit tibiae; assay: DIC bright field and deconvolution fluorescence imaging of tibia sections; format: in vivo; settings: daily administration (D20 and D40), 4 weeks
Description: (§1) Calcein (Dojindo Laboratories, Kumamoto, Japan) was subcutaneously injected into each animal at a dose of 10 mg/kg body weight on days 13 and 5 before sacrifice for bone double labeling (1-7-1-3). After the dosing period, the animals were euthanized by exsanguination under anesthesia using thiopental. The left and right tibiae were collected for a micro-CT analysis and histomorphometry, respectively. The kidneys, thyroid and parathyroid of all animals were collected and fixed in 10% neutral buffered formalin for a histopathological examination. The left tibiae were packed in plastic bags and stored at -30°C until use in a micro-CT analysis and mechanical testing. […]
Calcein-labeled undecalcified bone sections were subjected to imaging acquisition using a microscopy system, ECLIPSE Ni (Nikon, Tokyo, Japan) equipped with differential interference contrast microscopy (DIC) and objectives (Nikon), as follows: Plan Apo λ 10x (numerical aperture [N.A.] = 0.45), Plan Apo λ 20x (N.A. = 0.75), and Plan Apo λ 40x (N.A. = 0.95). The fluorescence signals were obtained using filter sets, GFP-B (excitation: 460–500 nm, DM: 505 nm, emission: 510–560 nm; Nikon) for calcein, and TxRed (excitation: 540–580 nm, DM: 595 nm, emission: 600–660 nm; Nikon) for auto-fluorescence derived from soft tissue. […] The fluorescence and DIC images were sequentially acquired, with a pixel size of 0.64 μm. […]

[2] = test system: kidneys, thyroid and parathyroid; assay: Histopathological examination of kidney, thyroid and parathyroid; settings: rabbit, in vivo
Description: Calcein (Dojindo Laboratories, Kumamoto, Japan) was subcutaneously injected into each animal at a dose of 10 mg/kg body weight on days 13 and 5 before sacrifice for bone double labeling (1-7-1-3). After the dosing period, the animals were euthanized by exsanguination under anesthesia using thiopental. The left and right tibiae were collected for a micro-CT analysis and histomorphometry, respectively. The kidneys, thyroid and parathyroid of all animals were collected and fixed in 10% neutral buffered formalin for a histopathological examination. The left tibiae were packed in plastic bags and stored at -30°C until use in a micro-CT analysis and mechanical testing. The right tibiae were fixed in 70% ethanol, stained with Villanueva bone stain, dehydrated in a graded ethanol series, defatted in acetone, and embedded in polymethyl methacrylate (Wako Pure Chemical Industries, Osaka, Japan). Thin ground sections of 10–20 μm in thickness were prepared using a micro cutting machine and a grinding machine (EXAKT, Germany) from a cross-section at a plane that was 3 mm proximal from the tibiofibular junction, and were subjected to bone histomorphometry. Right iliac crest were also fixed in 70% ethanol and processed for Vilanueva bone stain, dehydration, defattation, polymethyl methacrylate embedding and sectioning to 5 μm for three-dimensional second harmonic generation (3D-SHG) imaging. […]

[3] = test system: renal function; settings: rabbit, in vivo
Description: The serum samples collected for measurement of bone metabolic markers were also subjected to biochemical analysis to examine renal function. Serum blood urea nitrogen (BUN) and creatinine were measured using an autoanalyzer (Hitachi 7180 chemistry analyzer; Hitachi Ltd, Tokyo, Japan). Blood samples in all groups were collected at 0, 6, 24 hours after the administration of TPTD on days 1 and 22. Blood samples in the C, […] and […] groups were also collected at days 3 and 7 after on the 1st and 22nd days of administration. The samples were centrifuged at 1700 x g, at 4°C for 15 minutes in tubes with clot activator and serum was collected in order to measure the concentration of osteocalcin.

[4] = test system: endosteal bone collagen; settings: rabbit, in vivo
Description: as §1
An upright multi-photon excited microscopy system (A1RMP, Nikon Corporation, Japan) situated at the Imaging core facility of The Institute of Medical Science, The University of Tokyo was employed to acquire bone collagen-derived SHG signals and two-photon excited auto-fluorescence signals from Calcein-labeled undecalcified bone sections. […] The detection wavelengths were 420–425 nm and 500–550 nm for the acquisition of collagen-derived SHG signals and auto-fluorescence signals from soft tissue, respectively. […]

## CC[C@H](C)[C@H](NC(=O)[C@H](CCC(=O)O)NC(=O)[C@H](CO)NC(=O)[C@@H](NC(=O)[C@@H](N)CO)C(C)C)C(=O)N[C@@H](CCC(N)=O)C(=O)N[C@@H](CC(C)C)C(=O)N[C@@H](CCSC)C(=O)N[C@@H](Cc1cnc[nH]1)C(=O)N[C@@H](CC(N)=O)C(=O)N[C@@H](CC(C)C)C(=O)NCC(=O)N[C@@H](CCCCN)C(=O)N[C@@H](Cc1cnc[nH]1)C(=O)N[C@@H](CC(C)C)C(=O)N[C@@H](CC(N)=O)C(=O)N[C@@H](CO)C(=O)N[C@@H](CCSC)C(=O)N[C@@H](CCC(=O)O)C(=O)N[C@@H](CCCN=C(N)N)C(=O)N[C@H](C(=O)N[C@@H](CCC(=O)O)C(=O)N[C@@H](Cc1c[nH]c2ccccc12)C(=O)N[C@@H](CC(C)C)C(=O)N[C@@H](CCCN=C(N)N)C(=O)N[C@@H](CCCCN)C(=O)N[C@@H](CCCCN)C(=O)N[C@@H](CC(C)C)C(=O)N[C@@H](CCC(N)=O)C(=O)N[C@@H](CC(=O)O)C(=O)N[C@H](C(=O)N[C@@H](Cc1cnc[nH]1)C(=O)N[C@@H](CC(N)=O)C(=O)N[C@@H](Cc1ccccc1)C(=O)O)C(C)C)C(C)C [TPTD, Teriparatide]
[1]
  microscopic findings at the endosteal surface: development of bone marrow fibrosis and poorly mineralized and disorganized bone formation
[2]
  general histopathological examination, toxic effects: No obvious toxic effects were observed in any specimens
[3]
  level of serum blood urea nitrogen (BUN), effect of TPTD: not significantly affected
  level of serum creatinine, effect of TPTD: not significantly affected
[4]
  endosteal bone collagen pattern (3D-SHG): amorphously short fibers
